According to article PMC9218685, “Legume Plant Peptides as Sources of Novel Antimicrobial Molecules Against Human Pathogens” (Frontiers in Molecular Biosciences, 2022):
Peptide text beside a SMILES is read from it.

Legend:
Human red blood cells = assay: Hemolysis assay; assay type: cell-based; settings: 1 h at 37°C in TBS pH 7.2, peptides 0.4–100 μM, hemoglobin release OD560, relative to 0.5% Triton X-100 = 100%
Procedure: Human blood was purchased from the Regional Blood Centre in Szeged. The use of human blood for the hemolysis assay has been authorized by the Regional Hungarian Ethics Committee and approved by the Ethics Review Sector of DG RTD (European Commission) in connection with EK’s ERC AdG SymBiotics. The cells from 10 ml of EDTA-blood were centrifuged at 1,500 × g for 1 min and washed several times in TBS buffer (10 mM Tris, pH = 7.2, 150 mM NaCl) until the supernatant became colorless. The cells were then resuspended in 12 ml TBS buffer and 100 μl of this cell suspension was incubated for 1 h at 37°C in the presence of NCR peptides (0.4–100 μM). The cells were centrifuged at 1,500 g for 1 min and the supernatants were transferred into sterile 96-well plates and the hemoglobin release was measured at OD560 (Hidex Sense Microplate Reader with Plate Reader Software version 5064). […] The hemolytic activity was calculated as % of red blood cell disruption relative to the positive control sample lysed with detergent Triton X-100.
While AMPs can be very effective against microbes, they should not be toxic for human cells. […] Disruption of red blood cells was measured by spectrophotometry and compared to samples lysed with the detergent Triton X-100 (Supplementary Figure S2). […]

[1] = system: E. coli, S. enteritidis, P. aeruginosa, L. monocytogenes, S. aureus, E. faecalis, K. pneumoniae and A. baumannii; assay: Antimicrobial activity assay, spectrum over the eight tested pathogenic bacteria; assay type: cell-based; settings: 3 h treatment of ~10^7 log phase bacteria, peptides 25 to 0.8 µM; active = MBC ≤25 µM
Summary of the method: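 MBC taken as the lowest peptide concentration leaving no viable bacteria after 3 h exposure of ~10^7 log-phase cells. Peptides tested by 2-fold serial dilution, 25 µM down to 0.8 µM, in PPB (pH 7.4). Gram-positive and Gram-negative reference strains from ATCC, NCTC and HNCMO collections.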

[2] = quoted in the Introduction; ref Kim et al., 2015; cited from earlier work
From the text: In the Inverted Repeat Lacking Clade (IRLC) of legumes, in addition to defensins, a related family of peptides has evolved that encodes nodule specific, cysteine-rich NCR peptides that play essential roles in symbiosis ([Mergaert et al., 2003]; [Nallu et al., 2013]; [Montiel et al., 2017]). Legume plants in symbiosis with their rhizobium bacterium partner form nitrogen-fixing root nodules. The primary role of the NCR peptides is to convert bacteria into large polyploid, non-cultivable nitrogen-fixing bacteroids in the nodule cells ([Van de Velde et al., 2010]). This is a terminal differentiati ... || IRLC includes 56 genera and more than 4,000 species ([Duan et al., 2021]), and presumably all species have NCRs as it was confirmed in a few selected species. The genus Astragalus, with 2,300–2,500 members, has the highest number of species among angiosperms ([Duan et al., 2021]). In A. canadensis 108 NCRs have been identified ([Montiel et al., 2017]), while in the members of the Vicioid subclade 200–700 NCRs ([Ištvánek et al., 2014]; [Montiel et al., 2017]), thus, it is reasonable to assume that IRLC species in total express hundreds of thousand different NCRs, providing almost unlimited amou ...

Row | Compound | Hemolytic activity on human red blood cells (Human red blood cells) | Antibacterial spectrum over the eight tested bacterial strains [1] | net charge [2]
1 | CC[C@H](C)[C@H](NC(=O)CNC(=O)[C@@H](NC(=O)[C@H](CCCNC(=N)N)NC(=O)[C@@H]1CCCN1C(=O)[C@H](CS)NC(=O)[C@H](CC(=O)O)NC(=O)[C@H](CCCCN)NC(=O)[C@H](CC(=O)O)NC(=O)[C@H](CCCCN)NC(=O)[C@@H](NC(=O)[C@H](CS)NC(=O)[C@H](CO)NC(=O)[C@H](Cc1c[nH]cn1)NC(=O)[C@H](CC(N)=O)NC(=O)[C@H](CCCNC(=N)N)NC(=O)[C@H](CC(C)C)NC(=O)[C@H](CC(N)=O)NC(=O)[C@@H](NC(=O)[C@@H](N)CO)[C@@H](C)CC)[C@@H](C)CC)C(C)C)C(=O)N[C@@H](CC(C)C)C(=O)N[C@@H](CC(N)=O)C(=O)N[C@H](C(=O)N[C@@H](CCCNC(=N)N)C(=O)N[C@@H](CS)C(=O)N[C@@H](CCCNC(=N)N)C(=O)N[C@@H](CCCCN)C(=O)NCC(=O)N[C@@H](Cc1ccccc1)C(=O)N[C@@H](CS)C(=O)N[C@H](C(=O)N[C@@H](Cc1c[nH]cn1)C(=O)N[C@H](C(=O)N[C@@H](CO)C(=O)O)[C@@H](C)CC)C(C)C)[C@@H](C)CC [MsNCR465] (H-SINLRNHSCIKDKDCPRVGILNIRCRKGFCVHIS-OH; N-terminus assumed) | mild hemolysis at 50 and 100 μM |  | 
2 | DRECDTDTECQKKFPGVNAHHLWCDNGNCVSYPK [NCR211, anionic M. truncatula NCR peptide] |  | inactive | −2.1
